Read-outs that look alike come from different tables or passages of the source.
Assays:
Assay type in all cases: in vivo
[1] = test system: galium (catchweed bedstraw, Galium aparine); assay: Test B pre-/postemergence plant response; conditions: Preemergence
In short: (§1)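 Plants treated either at seeding (loam/sand soil) or postemergence at 2 to 18 cm height, using a surfactant-containing non-phytotoxic solvent formulation. Evaluation was visual after 13 to 15 days, 0 to 100 scale relative to controls.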

[2] = test system: sunflower (common oilseed sunflower, Helianthus annuus); assay: Test B pre-/postemergence plant response; conditions: Preemergence
In short: as §1

[3] = test system: nightshade (eastern black nightshade, Solanum ptycanthum); assay: Test B pre-/postemergence plant response; conditions: Preemergence
In short: as §1

[4] = test system: barnyardgrass (Echinochloa crus-galli); assay: Test A pre-/postemergence plant response; conditions: Echinochloa crus-galli, 240 h; for pest or weed control at 125 g/ha: 125 g ai/ha; for pest or weed control at 500 g/ha: 500 g ai/ha
In short: (§2)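 Injury scores (0, no effect; 100, complete control) come from visual comparison with untreated controls roughly ten days post-treatment. Test chemicals in a surfactant-containing non-phytotoxic solvent were applied as a directed soil spray preemergence and to one- to two-leaf seedlings postemergence.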

[5] = test system: large crabgrass (Digitaria sanguinalis); assay: Test A pre-/postemergence plant response; conditions: Digitaria sanguinalis, 240 h; for pest or weed control at 125 g/ha: 125 g ai/ha; for pest or weed control at 500 g/ha: 500 g ai/ha
In short: as §2

[6] = test system: wheat (Triticum aestivum); assay: Test A pre-/postemergence plant response; conditions: Triticum aestivum, 240 h; for plant injury at 125 g/ha: 125 g ai/ha; for plant injury at 500 g/ha: 500 g ai/ha
In short: as §2

[7] = test system: giant foxtail (Setaria faberii); assay: Test A pre-/postemergence plant response; conditions: Setaria faberi, 240 h; for pest or weed control at 125 g/ha: 125 g ai/ha; for pest or weed control at 500 g/ha: 500 g ai/ha
In short: as §2

[8] = test system: velvetleaf (Abutilon theophrasti); assay: Test A pre-/postemergence plant response; conditions: Abutilon theophrasti, 240 h; for pest or weed control at 125 g/ha: 125 g ai/ha; for pest or weed control at 500 g/ha: 500 g ai/ha
In short: as §2

corn (Zea mays) = assay: Test A pre-/postemergence plant response; conditions: Zea mays, 240 h; for Corn plant response rating (crop injury, 0 = no effect, 100 = complete kill) at 500 g/ha: 500 g ai/ha
In short: as §2

[9] = test system: winter barley (Hordeum vulgare); assay: Test B postemergence plant response; conditions: Postemergence
In short: (§3)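 Plants at the 1- to 4-leaf stage (2 to 18 cm tall), grown in pots of peat moss/vermiculite medium with wetting agent and starter nutrients, received postemergence applications of test chemicals. After 13 to 15 days in a greenhouse, injury was rated visually against untreated controls on a 0 (no effect) to 100 (complete control) scale.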

[10] = test system: chickweed (Stellaria media); assay: Test B postemergence plant response; conditions: Postemergence
In short: as §3

[11] = test system: windgrass (Apera spica-venti); assay: Test B postemergence plant response; conditions: Apera spica-venti, post-emergence, 360 h; Postemergence, 125 g ai/ha; visual rating after 13 to 15 days, scale 0 (no effect) to 100 (complete control)
In short: as §3

[12] = test system: canarygrass (Phalaris minor); assay: Test B postemergence plant response; conditions: Postemergence
In short: as §3

[13] = 31 g ai/ha, scale 0 to 100 (0 no effect, 100 complete control)
[14] = 62 g ai/ha, scale 0 to 100, 0 no effect, 100 complete control

Cc1c(F)cccc1-n1c(-c2ccccc2)ncc(C(=O)C2=C(O)CCCC2=O)c1=O [Compound 47, 3-(3-fluoro-2-methylphenyl)-5-[(2-hydroxy-6-oxo-1-cyclohexen-1-yl)carbonyl]-2-phenyl-4(3H)-pyrimidinone]
Plant response rating, Galium ([1]; 250 g ai/ha, 0 to 100 scale): 95
Plant response rating, Galium [1, 13]: 50
Plant response rating, Galium [1, 14]: 50
Galium plant response rating ([1]; 125 g ai/ha, 0 to 100 scale): 50
Plant response rating, Sunflower ([2]; 250 g ai/ha, 0 to 100 scale): 85
Plant response rating, Sunflower [2, 13]: 65
Sunflower plant response rating ([2]; 125 g ai/ha, 0 to 100 scale): 80
Plant response rating, Nightshade ([3]; 250 g ai/ha, 0 to 100 scale): 100
Plant response rating, Nightshade [3, 13]: 100
Plant response rating, Nightshade [3, 14]: 100
Nightshade plant response rating ([3]; 125 g ai/ha, 0 to 100 scale): 100
pest or weed control at 125 g/ha ([4]; post-emergence, Postemergence, visual injury, 0 to 100 scale (0 no effect, 100 complete control), approx. ten days, read-out: Barnyardgrass plant response rating): 90%
pest or weed control at 500 g/ha ([4]; post-emergence, Postemergence, 0 to 100 scale, 0 = no effect, 100 = complete control, approx. ten days, read-out: Plant response rating, Barnyardgrass): 100%
pest or weed control at 125 g/ha ([4]; pre-emergence, Preemergence, 0 to 100 scale, 0 = no effect, 100 = complete control, read-out: Plant response rating, Barnyardgrass): 10%
pest or weed control at 500 g/ha ([4]; pre-emergence, Preemergence, visual injury, 0 to 100 scale (0 no effect, 100 complete control), approx. ten days, read-out: Plant response rating, Barnyardgrass): 90%
pest or weed control at 125 g/ha ([5]; post-emergence, Postemergence, visual injury, 0 to 100 scale (0 no effect, 100 complete control), approx. ten days, read-out: Crabgrass, Large plant response rating): 90%
pest or weed control at 500 g/ha ([5]; post-emergence, Postemergence, 0 to 100 scale, 0 = no effect, 100 = complete control, approx. ten days, read-out: Plant response rating, Crabgrass, Large): 100%
pest or weed control at 125 g/ha ([5]; pre-emergence, Preemergence, 0 to 100 scale, 0 = no effect, 100 = complete control, read-out: Plant response rating, Crabgrass, Large): 70%
pest or weed control at 500 g/ha ([5]; pre-emergence, Preemergence, visual injury, 0 to 100 scale (0 no effect, 100 complete control), approx. ten days, read-out: Plant response rating, Crabgrass, Large): 100%
plant injury at 125 g/ha ([6]; post-emergence, Postemergence, visual injury, 0 to 100 scale (0 no effect, 100 complete control), approx. ten days, read-out: Wheat plant response rating): 0%
plant injury at 500 g/ha ([6]; post-emergence, Postemergence, 0 to 100 scale, 0 = no effect, 100 = complete control, approx. ten days, read-out: Plant response rating, Wheat): 0%
plant injury at 125 g/ha ([6]; pre-emergence, Preemergence, 0 to 100 scale, 0 = no effect, 100 = complete control, read-out: Plant response rating, Wheat): 0%
plant injury at 500 g/ha ([6]; pre-emergence, Preemergence, visual injury, 0 to 100 scale (0 no effect, 100 complete control), approx. ten days, read-out: Plant response rating, Wheat): 0%
pest or weed control at 125 g/ha ([7]; post-emergence, Postemergence, visual injury, 0 to 100 scale (0 no effect, 100 complete control), approx. ten days, read-out: Foxtail, Giant plant response rating): 90%
pest or weed control at 500 g/ha ([7]; post-emergence, Postemergence, 0 to 100 scale, 0 = no effect, 100 = complete control, approx. ten days, read-out: Plant response rating, Foxtail, Giant): 100%
pest or weed control at 125 g/ha ([7]; pre-emergence, Preemergence, 0 to 100 scale, 0 = no effect, 100 = complete control, read-out: Plant response rating, Foxtail, Giant): 50%
pest or weed control at 500 g/ha ([7]; pre-emergence, Preemergence, visual injury, 0 to 100 scale (0 no effect, 100 complete control), approx. ten days, read-out: Plant response rating, Foxtail, Giant): 90%
pest or weed control at 125 g/ha ([8]; post-emergence, Postemergence, visual injury, 0 to 100 scale (0 no effect, 100 complete control), approx. ten days, read-out: Velvetleaf plant response rating): 100%
pest or weed control at 500 g/ha ([8]; post-emergence, Postemergence, 0 to 100 scale, 0 = no effect, 100 = complete control, approx. ten days, read-out: Plant response rating, Velvetleaf): 100%
pest or weed control at 125 g/ha ([8]; pre-emergence, Preemergence, 0 to 100 scale, 0 = no effect, 100 = complete control, read-out: Plant response rating, Velvetleaf): 70%
pest or weed control at 500 g/ha ([8]; pre-emergence, Preemergence, visual injury, 0 to 100 scale (0 no effect, 100 complete control), approx. ten days, read-out: Plant response rating, Velvetleaf): 100%
plant injury at 125 g/ha (corn (Zea mays); post-emergence, Postemergence, 125 g ai/ha, visual injury, 0 to 100 scale (0 no effect, 100 complete control), approx. ten days, read-out: Corn plant response rating): 0%
Corn plant response rating (crop injury, 0 = no effect, 100 = complete kill) at 500 g/ha (corn (Zea mays); post-emergence, Postemergence, 0 to 100 scale, 0 = no effect, 100 = complete control, approx. ten days): 70%
Corn plant response rating (crop injury, 0 = no effect, 100 = complete kill) at 125 g/ha (corn (Zea mays); pre-emergence, Preemergence, 125 g ai/ha, 0 to 100 scale, 0 = no effect, 100 = complete control): 0%
Corn plant response rating (crop injury, 0 = no effect, 100 = complete kill) at 500 g/ha (corn (Zea mays); pre-emergence, Preemergence, visual injury, 0 to 100 scale (0 no effect, 100 complete control), approx. ten days): 0%
plant injury at 31 g/ha ([9]; Hordeum vulgare, post-emergence, 31 g ai/ha, scale 0 to 100 (0 no effect, 100 complete control), read-out: Plant response rating, Barley): 5%
plant injury at 62 g/ha ([9]; Hordeum vulgare, post-emergence, 62 g ai/ha, scale 0 (no effect) to 100 (complete control), 13 to 15 days, read-out: Plant response rating, Barley): 10%
plant injury at 125 g/ha ([9]; Hordeum vulgare, post-emergence, 125 g ai/ha, visual rating after 13 to 15 days, scale 0 (no effect) to 100 (complete control)): 10%
Barley plant response rating ([9]; 250 g ai/ha, scale 0 to 100): 35
Chickweed plant response rating ([10]; 250 g ai/ha, scale 0 to 100): 100
pest or weed control at 31 g/ha ([10]; Stellaria media, post-emergence, 360 h, 31 g ai/ha, scale 0 to 100 (0 no effect, 100 complete control), read-out: Plant response rating, Chickweed): 85%
pest or weed control at 62 g/ha ([10]; Stellaria media, post-emergence, 360 h, 62 g ai/ha, scale 0 (no effect) to 100 (complete control), 13 to 15 days, read-out: Plant response rating, Chickweed): 98%
pest or weed control at 125 g/ha ([10]; Stellaria media, post-emergence, 360 h, 125 g ai/ha, visual rating after 13 to 15 days, scale 0 (no effect) to 100 (complete control)): 100%
pest or weed control at 125 g/ha [11]: 80%
pest or weed control at 31 g/ha ([12]; Phalaris minor, post-emergence, 360 h, 31 g ai/ha, scale 0 to 100 (0 no effect, 100 complete control), read-out: Plant response rating, Canarygrass): 20%
pest or weed control at 62 g/ha ([12]; Phalaris minor, post-emergence, 360 h, 62 g ai/ha, scale 0 (no effect) to 100 (complete control), 13 to 15 days, read-out: Plant response rating, Canarygrass): 30%
pest or weed control at 125 g/ha ([12]; Phalaris minor, post-emergence, 360 h, 125 g ai/ha, visual rating after 13 to 15 days, scale 0 (no effect) to 100 (complete control)): 40%
Canarygrass plant response rating ([12]; 250 g ai/ha, scale 0 to 100): 40

Reference: patent US8952024B2, “Herbicidal pyrimidone derivatives” (E I du Pont de Nemours and Company, priority 2009, dated 2015)
